Source: ChEMBL document CHEMBL5724806, “Unraveling interindividual differences and functional consequences of gut microbial metabolism of immunosuppressants” (2024)

Columns and labels:
Assay type in all cases: ADME
[1] = The drug is tested on the gut metagenome community of T-03 with ENA study accession number: PRJEB31790 for biotransformation under anaerobic condition. The drug concentrations were measured over 7 timepoints collected between 0 and 12 hours of incubation by liquid-chromatography-coupled mass spectrometry (LC–MS); parameters: dose 5 uM, timepoint 0, 0.75, 1.5, 3, 6, 9, 12 hours; settings: 5 µM
[2] = The drug is tested on Prevotella copri strain: DSM18205 for biotransformation under anaerobic condition. The drug concentrations were measured over 6 timepoints collected between 0 and 12 hours of incubation by liquid-chromatography-coupled mass spectrometry (LC–MS); parameters: dose 5 uM, timepoint 0, 1.5, 3, 6, 9, 12 hours; settings: segatella copri, 5 µM
[3] = The drug is tested on Streptococcus sanguinis strain: DSM20567 for biotransformation under anaerobic condition. The drug concentrations were measured over 6 timepoints collected between 0 and 12 hours of incubation by liquid-chromatography-coupled mass spectrometry (LC–MS); parameters: dose 5 uM, timepoint 0, 1.5, 3, 6, 9, 12 hours; settings: 5 µM
[4] = The drug is tested on Parabacteroides merdae strain: DSM19495 for biotransformation under anaerobic condition. The drug concentrations were measured over 6 timepoints collected between 0 and 12 hours of incubation by liquid-chromatography-coupled mass spectrometry (LC–MS); parameters: dose 5 uM, timepoint 0, 1.5, 3, 6, 9, 12 hours; settings: 5 µM
[5] = The drug is tested on the gut metagenome community of A-06 with ENA study accession number: PRJEB31790 for biotransformation under anaerobic condition. The drug concentrations were measured over 7 timepoints collected between 0 and 12 hours of incubation by liquid-chromatography-coupled mass spectrometry (LC–MS); parameters: dose 5 uM, timepoint 0, 0.75, 1.5, 3, 6, 9, 12 hours; settings: 5 µM
[6] = The drug is tested on the gut metagenome community of T-02 with ENA study accession number: PRJEB31790 for biotransformation under microaerobic condition. The drug concentrations were measured over 7 timepoints collected between 0 and 12 hours of incubation by liquid-chromatography-coupled mass spectrometry (LC–MS); parameters: dose 5 uM, timepoint 0, 0.75, 1.5, 3, 6, 9, 12 hours; settings: 5 µM
[7] = The drug is tested on Lactobacillus gasseri strain: DSM20243 for biotransformation under microaerobic condition. The drug concentrations were measured over 6 timepoints collected between 0 and 12 hours of incubation by liquid-chromatography-coupled mass spectrometry (LC–MS); parameters: dose 5 uM, timepoint 0, 1.5, 3, 6, 9, 12 hours; settings: 5 µM
[8] = The drug is tested on Lactobacillus reuteri strain: DSM20016 for biotransformation under microaerobic condition. The drug concentrations were measured over 6 timepoints collected between 0 and 12 hours of incubation by liquid-chromatography-coupled mass spectrometry (LC–MS); parameters: dose 5 uM, timepoint 0, 1.5, 3, 6, 9, 12 hours; settings: limosilactobacillus reuteri, 5 µM
[9] = The drug is tested on the gut metagenome community of A-04 with ENA study accession number: PRJEB31790 for biotransformation under anaerobic condition. The drug concentrations were measured over 7 timepoints collected between 0 and 12 hours of incubation by liquid-chromatography-coupled mass spectrometry (LC–MS); parameters: dose 5 uM, timepoint 0, 0.75, 1.5, 3, 6, 9, 12 hours; settings: 5 µM
[10] = The drug is tested on Lactobacillus paracasei strain: ATCC27092 for biotransformation under anaerobic condition. The drug concentrations were measured over 6 timepoints collected between 0 and 12 hours of incubation by liquid-chromatography-coupled mass spectrometry (LC–MS); parameters: dose 5 uM, timepoint 0, 1.5, 3, 6, 9, 12 hours; settings: lacticaseibacillus paracasei, 5 µM
[11] = The drug is tested on the gut metagenome community of T-02 with ENA study accession number: PRJEB31790 for biotransformation under anaerobic condition. The drug concentrations were measured over 7 timepoints collected between 0 and 12 hours of incubation by liquid-chromatography-coupled mass spectrometry (LC–MS); parameters: dose 5 uM, timepoint 0, 0.75, 1.5, 3, 6, 9, 12 hours; settings: 5 µM
[12] = The drug is tested on the gut metagenome community of T-04 with ENA study accession number: PRJEB31790 for biotransformation under anaerobic condition. The drug concentrations were measured over 7 timepoints collected between 0 and 12 hours of incubation by liquid-chromatography-coupled mass spectrometry (LC–MS); parameters: dose 5 uM, timepoint 0, 0.75, 1.5, 3, 6, 9, 12 hours; settings: 5 µM
[13] = The drug is tested on Capnocytophaga ochracea strain: DSM7271 for biotransformation under anaerobic condition. The drug concentrations were measured over 6 timepoints collected between 0 and 12 hours of incubation by liquid-chromatography-coupled mass spectrometry (LC–MS); parameters: dose 5 uM, timepoint 0, 1.5, 3, 6, 9, 12 hours; settings: 5 µM
[14] = The drug is tested on Streptococcus salivarius strain: DSM20560 for biotransformation under microaerobic condition. The drug concentrations were measured over 6 timepoints collected between 0 and 12 hours of incubation by liquid-chromatography-coupled mass spectrometry (LC–MS); parameters: dose 5 uM, timepoint 0, 1.5, 3, 6, 9, 12 hours; settings: 5 µM
[15] = The drug is tested on Eubacterium rectale strain: DSM17629 for biotransformation under anaerobic condition. The drug concentrations were measured over 6 timepoints collected between 0 and 12 hours of incubation by liquid-chromatography-coupled mass spectrometry (LC–MS); parameters: dose 5 uM, timepoint 0, 1.5, 3, 6, 9, 12 hours; settings: agathobacter rectalis, 5 µM
[16] = The drug is tested on the gut metagenome community of A-01 with ENA study accession number: PRJEB31790 for biotransformation under microaerobic condition. The drug concentrations were measured over 7 timepoints collected between 0 and 12 hours of incubation by liquid-chromatography-coupled mass spectrometry (LC–MS); parameters: dose 5 uM, timepoint 0, 0.75, 1.5, 3, 6, 9, 12 hours; settings: 5 µM
[17] = The drug is tested on Actinomyces graevenitzii strain: DSM15540 for biotransformation under microaerobic condition. The drug concentrations were measured over 6 timepoints collected between 0 and 12 hours of incubation by liquid-chromatography-coupled mass spectrometry (LC–MS); parameters: dose 5 uM, timepoint 0, 1.5, 3, 6, 9, 12 hours; settings: 5 µM
[18] = The drug is tested on Ruminococcus gnavus strain: ATCC29149 for biotransformation under anaerobic condition. The drug concentrations were measured over 6 timepoints collected between 0 and 12 hours of incubation by liquid-chromatography-coupled mass spectrometry (LC–MS); parameters: dose 5 uM, timepoint 0, 1.5, 3, 6, 9, 12 hours; settings: mediterraneibacter gnavus, 5 µM
[19] = The drug is tested on Collinsella aerofaciens strain: DSM3979 for biotransformation under anaerobic condition. The drug concentrations were measured over 6 timepoints collected between 0 and 12 hours of incubation by liquid-chromatography-coupled mass spectrometry (LC–MS); parameters: dose 5 uM, timepoint 0, 1.5, 3, 6, 9, 12 hours; settings: 5 µM
[20] = The drug is tested on the gut metagenome community of P-01 with ENA study accession number: PRJEB31790 for biotransformation under anaerobic condition. The drug concentrations were measured over 7 timepoints collected between 0 and 12 hours of incubation by liquid-chromatography-coupled mass spectrometry (LC–MS); parameters: dose 5 uM, timepoint 0, 0.75, 1.5, 3, 6, 9, 12 hours; settings: 5 µM
[21] = The drug is tested on Streptococcus sanguinis strain: DSM20567 for biotransformation under microaerobic condition. The drug concentrations were measured over 6 timepoints collected between 0 and 12 hours of incubation by liquid-chromatography-coupled mass spectrometry (LC–MS); parameters: dose 5 uM, timepoint 0, 1.5, 3, 6, 9, 12 hours; settings: 5 µM
[22] = The drug is tested on Odoribacter splanchnicus strain: DSM20712 for biotransformation under anaerobic condition. The drug concentrations were measured over 6 timepoints collected between 0 and 12 hours of incubation by liquid-chromatography-coupled mass spectrometry (LC–MS); parameters: dose 5 uM, timepoint 0, 1.5, 3, 6, 9, 12 hours; settings: 5 µM
[23] = The drug is tested on Streptococcus anginosus strain: DSM20563 for biotransformation under anaerobic condition. The drug concentrations were measured over 6 timepoints collected between 0 and 12 hours of incubation by liquid-chromatography-coupled mass spectrometry (LC–MS); parameters: dose 5 uM, timepoint 0, 1.5, 3, 6, 9, 12 hours; settings: 5 µM
[24] = The drug is tested on the gut metagenome community of A-10 with ENA study accession number: PRJEB31790 for biotransformation under microaerobic condition. The drug concentrations were measured over 7 timepoints collected between 0 and 12 hours of incubation by liquid-chromatography-coupled mass spectrometry (LC–MS); parameters: dose 5 uM, timepoint 0, 0.75, 1.5, 3, 6, 9, 12 hours; settings: 5 µM
[25] = The drug is tested on the gut metagenome community of P-03 with ENA study accession number: PRJEB31790 for biotransformation under anaerobic condition. The drug concentrations were measured over 7 timepoints collected between 0 and 12 hours of incubation by liquid-chromatography-coupled mass spectrometry (LC–MS); parameters: dose 5 uM, timepoint 0, 0.75, 1.5, 3, 6, 9, 12 hours; settings: 5 µM

| Structure (SMILES) | Bacterial Biotransformation [1] | Bacterial Biotransformation [2] | Bacterial Biotransformation [3] | Bacterial Biotransformation [4] | Bacterial Biotransformation [5] | Bacterial Biotransformation [6] | Bacterial Biotransformation [7] | Bacterial Biotransformation [8] | Bacterial Biotransformation [9] | Bacterial Biotransformation [10] | Bacterial Biotransformation [11] | Bacterial Biotransformation [12] | Bacterial Biotransformation [13] | Bacterial Biotransformation [14] | Bacterial Biotransformation [15] | Bacterial Biotransformation [16] | Bacterial Biotransformation [17] | Bacterial Biotransformation [18] | Bacterial Biotransformation [19] | Bacterial Biotransformation [20] | also measured |
| --- | --- | --- | --- | --- | --- | --- | --- | --- | --- | --- | --- | --- | --- | --- | --- | --- | --- | --- | --- | --- | --- |
| CO[C@H]1C[C@@H]2CC[C@@H](C)[C@@](O)(O2)C(=O)C(=O)N2CCCC[C@H]2C(=O)O[C@H]([C@H](C)C[C@@H]2CC[C@@H](OCCO)[C@H](OC)C2)CC(=O)[C@H](C)/C=C(\C)[C@@H](O)[C@@H](OC)C(=O)[C@H](C)C[C@H](C)/C=C/C=C/C=C/1C [EVEROLIMUS] | Compound NOT metabolized | Compound NOT metabolized | Compound NOT metabolized | Compound NOT metabolized | Compound metabolized | Compound metabolized | Compound NOT metabolized | Compound NOT metabolized | Compound metabolized | Compound NOT metabolized | Compound metabolized | Compound NOT metabolized | Compound NOT metabolized | Compound NOT metabolized | Compound NOT metabolized | Compound metabolized | Compound NOT metabolized | Compound NOT metabolized | Compound metabolized | Compound NOT metabolized | Bacterial Biotransformation [21]: Compound NOT metabolized; Bacterial Biotransformation [22]: Compound NOT metabolized; Bacterial Biotransformation [23]: Compound NOT metabolized; Bacterial Biotransformation [24]: Compound NOT metabolized; Bacterial Biotransformation [25]: Compound NOT metabolized |
| NS(=O)(=O)c1cc(C(=O)O)c(NCc2ccco2)cc1Cl [FUROSEMIDE] | Compound NOT metabolized | Compound NOT metabolized | Compound NOT metabolized | Compound NOT metabolized | Compound NOT metabolized | Compound NOT metabolized | Compound NOT metabolized | Compound NOT metabolized | Compound NOT metabolized | Compound NOT metabolized | Compound NOT metabolized | Compound NOT metabolized | Compound NOT metabolized | Compound NOT metabolized | Compound NOT metabolized | Compound NOT metabolized | Compound NOT metabolized | Compound NOT metabolized | Compound NOT metabolized | Compound NOT metabolized | Bacterial Biotransformation [21]: Compound NOT metabolized; Bacterial Biotransformation [22]: Compound NOT metabolized; Bacterial Biotransformation [23]: Compound NOT metabolized; Bacterial Biotransformation [24]: Compound NOT metabolized; Bacterial Biotransformation [25]: Compound NOT metabolized |
| C[C@]12CCC(=O)C=C1CC[C@@H]1[C@@H]2[C@@H](O)C[C@@]2(C)[C@H]1CC[C@]2(O)C(=O)CO [HYDROCORTISONE] | Compound NOT metabolized | Compound NOT metabolized | Compound NOT metabolized | Compound NOT metabolized | Compound metabolized | Compound metabolized | Compound NOT metabolized | Compound NOT metabolized | Compound metabolized | Compound NOT metabolized | Compound metabolized | Compound NOT metabolized | Compound NOT metabolized | Compound metabolized | Compound NOT metabolized | Compound metabolized | Compound NOT metabolized | Compound metabolized | Compound NOT metabolized | Compound metabolized | Bacterial Biotransformation [21]: Compound NOT metabolized; Bacterial Biotransformation [22]: Compound NOT metabolized; Bacterial Biotransformation [23]: Compound NOT metabolized; Bacterial Biotransformation [24]: Compound metabolized; Bacterial Biotransformation [25]: Compound metabolized |
